# Measurements reported in the NIST ThermoML archive (doi:10.1016/j.jct.2012.08.010).
# Numbers after ± are expanded uncertainties.
# Experiment: not given
# Details: 288.15 K; 101 kPa; Liquid; Vibrating tube method
row,SMILES,mass density
1,"Cc1ccccc1C [1,2-dimethylbenzene]",884.07 ± 0.12 kg/m3
2,"Cc1cccc(C)c1 [1,3-dimethylbenzene]",868.39 ± 0.13 kg/m3
3,"Cc1ccc(C)cc1 [1,4-dimethylbenzene]",865.3 ± 0.1 kg/m3
4,"C=C[Si]1(C)O[Si](C)(C=C)O[Si](C)(C=C)O[Si](C)(C=C)O1 (stereo not given) [2,4,6,8-tetramethyl-2,4,6,8-tetravinylcycloterasiloxane]",992.74 ± 0.13 kg/m3
5,CCc1ccccc1 [ethylbenzene],871.31 ± 0.13 kg/m3

# Same assay, conditions: 298.15 K; 101 kPa; Liquid; Vibrating tube method
row,SMILES,mass density
1,"Cc1ccccc1C [1,2-dimethylbenzene]",875.67 ± 0.13 kg/m3
2,"Cc1cccc(C)c1 [1,3-dimethylbenzene]",859.83 ± 0.13 kg/m3
3,"Cc1ccc(C)cc1 [1,4-dimethylbenzene]",856.62 ± 0.13 kg/m3
4,"C=C[Si]1(C)O[Si](C)(C=C)O[Si](C)(C=C)O[Si](C)(C=C)O1 (stereo not given) [2,4,6,8-tetramethyl-2,4,6,8-tetravinylcycloterasiloxane]",982.54 ± 0.13 kg/m3
5,CCc1ccccc1 [ethylbenzene],862.55 ± 0.13 kg/m3

# Same assay, conditions: 308.15 K; 101 kPa; Liquid; Vibrating tube method
row,SMILES,mass density
1,"Cc1ccccc1C [1,2-dimethylbenzene]",867.3 ± 0.1 kg/m3
2,"Cc1cccc(C)c1 [1,3-dimethylbenzene]",851.25 ± 0.13 kg/m3
3,"Cc1ccc(C)cc1 [1,4-dimethylbenzene]",847.97 ± 0.13 kg/m3
4,"C=C[Si]1(C)O[Si](C)(C=C)O[Si](C)(C=C)O[Si](C)(C=C)O1 (stereo not given) [2,4,6,8-tetramethyl-2,4,6,8-tetravinylcycloterasiloxane]",972.34 ± 0.13 kg/m3
5,CCc1ccccc1 [ethylbenzene],853.75 ± 0.13 kg/m3

# Same assay, conditions: 318.15 K; 101 kPa; Liquid; Vibrating tube method
row,SMILES,mass density
1,"Cc1ccccc1C [1,2-dimethylbenzene]",858.81 ± 0.13 kg/m3
2,"Cc1cccc(C)c1 [1,3-dimethylbenzene]",842.58 ± 0.13 kg/m3
3,"Cc1ccc(C)cc1 [1,4-dimethylbenzene]",839.21 ± 0.13 kg/m3
4,"C=C[Si]1(C)O[Si](C)(C=C)O[Si](C)(C=C)O[Si](C)(C=C)O1 (stereo not given) [2,4,6,8-tetramethyl-2,4,6,8-tetravinylcycloterasiloxane]",962.14 ± 0.13 kg/m3
5,CCc1ccccc1 [ethylbenzene],844.87 ± 0.13 kg/m3

# Same assay, conditions: 328.15 K; 101 kPa; Liquid; Vibrating tube method
row,SMILES,mass density
1,"Cc1ccccc1C [1,2-dimethylbenzene]",850.24 ± 0.13 kg/m3
2,"Cc1cccc(C)c1 [1,3-dimethylbenzene]",833.85 ± 0.14 kg/m3
3,"Cc1ccc(C)cc1 [1,4-dimethylbenzene]",830.39 ± 0.14 kg/m3
4,"C=C[Si]1(C)O[Si](C)(C=C)O[Si](C)(C=C)O[Si](C)(C=C)O1 (stereo not given) [2,4,6,8-tetramethyl-2,4,6,8-tetravinylcycloterasiloxane]",951.94 ± 0.13 kg/m3
5,CCc1ccccc1 [ethylbenzene],835.93 ± 0.13 kg/m3

# Experiment: refractive index (Na D-line) (dimensionless); φn = volume fraction of the nth substance listed
# Details: 288.15 K; 101 kPa; Liquid; Standard Abbe refractometry; φ2 = 0
row,SMILES,refractive index
1,"Cc1ccccc1C [1,2-dimethylbenzene] + C=C[Si]1(C)O[Si](C)(C=C)O[Si](C)(C=C)O[Si](C)(C=C)O1",1.50775 ± 0.00031
2,"Cc1cccc(C)c1 [1,3-dimethylbenzene] + C=C[Si]1(C)O[Si](C)(C=C)O[Si](C)(C=C)O[Si](C)(C=C)O1",1.49969 ± 0.00031
3,"Cc1ccc(C)cc1 [1,4-dimethylbenzene] + C=C[Si]1(C)O[Si](C)(C=C)O[Si](C)(C=C)O[Si](C)(C=C)O1",1.49836 ± 0.00031
4,CCc1ccccc1 [ethylbenzene] + C=C[Si]1(C)O[Si](C)(C=C)O[Si](C)(C=C)O[Si](C)(C=C)O1,1.49834 ± 0.00031

# Same assay, conditions: 298.15 K; 101 kPa; Liquid; Standard Abbe refractometry; φ2 = 0
row,SMILES,refractive index
1,"Cc1ccccc1C [1,2-dimethylbenzene] + C=C[Si]1(C)O[Si](C)(C=C)O[Si](C)(C=C)O[Si](C)(C=C)O1",1.50257 ± 0.00031
2,"Cc1cccc(C)c1 [1,3-dimethylbenzene] + C=C[Si]1(C)O[Si](C)(C=C)O[Si](C)(C=C)O[Si](C)(C=C)O1",1.49444 ± 0.00031
3,"Cc1ccc(C)cc1 [1,4-dimethylbenzene] + C=C[Si]1(C)O[Si](C)(C=C)O[Si](C)(C=C)O[Si](C)(C=C)O1",1.49298 ± 0.00031
4,CCc1ccccc1 [ethylbenzene] + C=C[Si]1(C)O[Si](C)(C=C)O[Si](C)(C=C)O[Si](C)(C=C)O1,1.49297 ± 0.00031

# Same assay, conditions: 308.15 K; 101 kPa; Liquid; Standard Abbe refractometry; φ2 = 0
row,SMILES,refractive index
1,"Cc1ccccc1C [1,2-dimethylbenzene] + C=C[Si]1(C)O[Si](C)(C=C)O[Si](C)(C=C)O[Si](C)(C=C)O1",1.49724 ± 0.00031
2,"Cc1cccc(C)c1 [1,3-dimethylbenzene] + C=C[Si]1(C)O[Si](C)(C=C)O[Si](C)(C=C)O[Si](C)(C=C)O1",1.48894 ± 0.00031
3,"Cc1ccc(C)cc1 [1,4-dimethylbenzene] + C=C[Si]1(C)O[Si](C)(C=C)O[Si](C)(C=C)O[Si](C)(C=C)O1",1.48743 ± 0.00031
4,CCc1ccccc1 [ethylbenzene] + C=C[Si]1(C)O[Si](C)(C=C)O[Si](C)(C=C)O[Si](C)(C=C)O1,1.48747 ± 0.00031

# Same assay, conditions: 318.15 K; 101 kPa; Liquid; Standard Abbe refractometry; φ2 = 0
row,SMILES,refractive index
1,"Cc1ccccc1C [1,2-dimethylbenzene] + C=C[Si]1(C)O[Si](C)(C=C)O[Si](C)(C=C)O[Si](C)(C=C)O1",1.49201 ± 0.00031
2,"Cc1cccc(C)c1 [1,3-dimethylbenzene] + C=C[Si]1(C)O[Si](C)(C=C)O[Si](C)(C=C)O[Si](C)(C=C)O1",1.48355 ± 0.00031
3,"Cc1ccc(C)cc1 [1,4-dimethylbenzene] + C=C[Si]1(C)O[Si](C)(C=C)O[Si](C)(C=C)O[Si](C)(C=C)O1",1.48202 ± 0.00031
4,CCc1ccccc1 [ethylbenzene] + C=C[Si]1(C)O[Si](C)(C=C)O[Si](C)(C=C)O[Si](C)(C=C)O1,1.48202 ± 0.00031

# Same assay, conditions: 328.15 K; 101 kPa; Liquid; Standard Abbe refractometry; φ2 = 0
row,SMILES,refractive index
1,"Cc1ccccc1C [1,2-dimethylbenzene] + C=C[Si]1(C)O[Si](C)(C=C)O[Si](C)(C=C)O[Si](C)(C=C)O1",1.48661 ± 0.00031
2,"Cc1cccc(C)c1 [1,3-dimethylbenzene] + C=C[Si]1(C)O[Si](C)(C=C)O[Si](C)(C=C)O[Si](C)(C=C)O1",1.4782 ± 0.0003
3,"Cc1ccc(C)cc1 [1,4-dimethylbenzene] + C=C[Si]1(C)O[Si](C)(C=C)O[Si](C)(C=C)O[Si](C)(C=C)O1",1.47654 ± 0.00031
4,CCc1ccccc1 [ethylbenzene] + C=C[Si]1(C)O[Si](C)(C=C)O[Si](C)(C=C)O[Si](C)(C=C)O1,1.47649 ± 0.00031
